Measurements published in patent US11591366B2, “Macrocyclic compounds and methods of preventing or treating pain” (SOCPRA SCIENCES SANTÉ ET HUMAINES S.E.C., priority 2017, dated 2023).
Where two headings read alike, the source gives them in different places. Numbered stars: 1 amine (or outer) side, 2 acyl side, 3 side chain; on linkers, the order of the positions; unused ones are H or OH. Square brackets hold non-standard residues; d marks the D form. Peptide text beside a SMILES is read from it. X3 = NCCCC[C@H](N)CN([C@@H](CCCCN)C(=O)[*:2])[*:1]; Tle = CC(C)(C)[C@H](N)C(=O)O

Experiments:
[1] = target: T1, hNTS1 (β-arrestin 2 recruitment) (Homo sapiens, UniProt P30989); test: BRET biosensor assay, β-arrestin 2 recruitment; assay type: cell-based
T1 construct: expressed in transfected cells; host or cells: CHO-K1, transient transfection with PEI
T1 sequence (P30989 whole entry): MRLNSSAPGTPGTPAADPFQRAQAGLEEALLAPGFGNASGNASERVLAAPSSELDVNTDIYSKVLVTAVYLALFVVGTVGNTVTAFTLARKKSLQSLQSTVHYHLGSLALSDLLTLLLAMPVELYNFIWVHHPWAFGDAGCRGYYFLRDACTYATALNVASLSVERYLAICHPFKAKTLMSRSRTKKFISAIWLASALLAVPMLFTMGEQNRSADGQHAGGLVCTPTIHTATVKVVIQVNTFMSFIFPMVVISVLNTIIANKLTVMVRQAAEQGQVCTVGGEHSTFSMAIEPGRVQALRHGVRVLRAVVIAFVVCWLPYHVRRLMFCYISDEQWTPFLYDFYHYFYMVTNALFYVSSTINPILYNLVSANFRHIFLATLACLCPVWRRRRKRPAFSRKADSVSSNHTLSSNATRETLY
T1 sequence (P32121 whole entry partner): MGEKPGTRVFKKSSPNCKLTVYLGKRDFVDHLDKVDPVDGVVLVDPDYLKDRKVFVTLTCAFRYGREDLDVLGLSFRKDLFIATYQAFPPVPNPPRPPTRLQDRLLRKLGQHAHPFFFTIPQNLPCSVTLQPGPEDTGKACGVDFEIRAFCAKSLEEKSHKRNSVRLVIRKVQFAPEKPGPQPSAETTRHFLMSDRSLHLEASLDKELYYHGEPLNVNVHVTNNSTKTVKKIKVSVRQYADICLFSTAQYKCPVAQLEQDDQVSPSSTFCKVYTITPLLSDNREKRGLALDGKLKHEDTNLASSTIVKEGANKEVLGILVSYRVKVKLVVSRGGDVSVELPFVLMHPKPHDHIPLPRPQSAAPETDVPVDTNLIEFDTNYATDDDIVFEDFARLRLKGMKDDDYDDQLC
Protocol: CHO-K1 cells were cultured in DMEM-F12 supplemented with 10% FBS, 100 U/mL penicillin, 100 μg/mL streptomycin, and 20 mM HEPES at 37° C. in a humidified chamber at 5% CO2. Cells were seeded into T75 flasks at a density of 20 000 cells/cm^2; 24 h later, cells were transfected with plasmids coding for hNTS1-Green fluorescent protein 10(GFP10)/Rluc (Renilla Luciferase)II-β-arrestin 1 or hNTS1-GFP10/RlucII-β-arrestin2, or with hNTS1/Gαq-RlucII/Gβ1/IGFP10-Gγ1 or hNTS1/Gα13-RlucII/Gβ1/GFP10-Gγ1 using polyethylenimine (PEI). Cells were transferred into 96-well plates at a concentration of 50 000 cells/well 24 h after transfection and incubated at 37° C. overnight. They were then washed with PBS and 90 μL HBSS was added in each well. […] After stimulation, coelenterazine 400A was added in each well to a final concentration of 5 μM and the plate was read using filter selected for BRET2 measurement (BRET2 High efficiency filter set, λemRlucII: 410±80 nm, λemGFP10: 515±40 nm) on a Mithras 2 plate reader (Berthold Technologies, Tennessee, USA). BRET2 ratio was determined as GFP10em/RlucIIem. […] EC50 (Effective Concentration 50) values were determined using the dose response-stimulation log(agonist) vs response (three parameters) and represent the mean±SEM of at least three separate experiments, each performed in triplicate.
NTS1 is capable of activating several signaling pathways, thus the activation of Gαq, Gα13, β-arrestin 1 and β-arrestin 2 pathways was monitored. The ability of compounds of the invention to activate the NTS1 receptor was assessed using Bioluminescence Resonance Energy Transfer (BRET)-based biosensors, reporting the dissociation of G proteins (Table III, column EC50 Gq) and the recruitment of β-arrestins to the receptor (Table III, column EC50 βarr).

[2] = Plasma stability assay; assay type: in vitro ADME; conditions: rat plasma at 37° C.
Protocol: Rat plasma was obtained by centrifugation of rat blood (13000 rpm, 5 min, 4° C.). […] Proteolytic degradation was quenched by adding 70 μL of acetonitrile/ethanol (1:1), 0.5% nicotinamide solution and vortexing. […] Data were analyzed using GraphPad Prism 7's one phase decay equation.

[3] = target: T2, rNTS2 receptor (Rattus norvegicus, UniProt Q63384); test: Competitive radioligand binding assay on the rNTS2 receptor; conditions: for inhibition at 1 µM: 1 μM macrocycle dose, read-out: NTS2 % displ at 1 μM (radiolabeled neurotensin displaced); for IC50: 125I-[Tyr3]-NT competition, rNTS2 membranes, read-out: NTS2 IC50
T2 construct: expressed in transfected cells; host or cells: DRG-F11 cells, transient transfection, membranes
T2 sequence (Q63384 1-416): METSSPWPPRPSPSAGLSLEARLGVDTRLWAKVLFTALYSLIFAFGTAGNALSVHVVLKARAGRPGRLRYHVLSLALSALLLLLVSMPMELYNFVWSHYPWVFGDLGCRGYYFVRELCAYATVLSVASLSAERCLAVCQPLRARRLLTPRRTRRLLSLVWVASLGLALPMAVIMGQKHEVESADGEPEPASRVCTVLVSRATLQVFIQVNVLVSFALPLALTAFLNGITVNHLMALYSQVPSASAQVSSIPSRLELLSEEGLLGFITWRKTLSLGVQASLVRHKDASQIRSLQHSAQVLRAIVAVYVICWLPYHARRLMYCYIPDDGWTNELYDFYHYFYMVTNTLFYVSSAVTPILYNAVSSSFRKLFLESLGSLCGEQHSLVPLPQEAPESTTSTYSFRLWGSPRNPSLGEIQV
Protocol: DRG-F11 cells were cultured in DMEM supplemented with 10% FBS, 100 U/mL penicillin, 100 μg/mL streptomycin, and 20 mM HEPES.
Membranes were prepared by scraping cells off the culture dish with 50 mM Tris ph 7.5 and centrifuged at 15,000 g for 5 min at 4° C. The pellet was resuspended in 10 mM Tris, 1 mM EDTA pH 7.5 and sonicated for 30 s prior to be centrifugated at 15,000 g for 30 min at 4° C. The pellet was then re-suspended in binding 9 buffer. […] All other steps in binding experiments were unchanged comparing to the one using the NTS1 receptor.

[4] = tested on: rats; test: Blood pressure (hypotension); assay type: in vivo, rat; conditions: 0.01 mg/kg; for Arterial blood pressure response / Blood pressure drop, first phase / Blood pressure in phase 3: rat, i.v.
Protocol: Mean, systolic and diastolic arterial blood pressure and a heart rate were measured through a catheter (PE 50 filled with heparinized saline) inserted in the right carotid artery and connected to a Micro-Med™ transducer (model TDX-300, USA) linked to a blood pressure Micro-Med™ analyzer (model BPA-100c). Another catheter (PE 10 filled with heparinized saline) was inserted in the left jugular vein for injection of test compounds at 0.01 mg/kg (volume 1 mL/kg, 5-10 s) or 0.9% saline. Blood pressure was recorded each second for up to 900 seconds following intravenous injection.

[5] = target: hNTS1 receptor (Homo sapiens, UniProt P30989); test: Competitive radioligand binding assay on the hNTS1 receptor; conditions: 125I-[Tyr3]-NT competition, hNTS1 membranes; mean ± SEM; read-out: NTS1 IC50
hNTS1 receptor, sequence (P30989 whole entry): as the sequence (P30989 whole entry) above
Protocol: CHO-K1 (Chinese Hamster Ovary) cells stably expressing hNTS1 (ES-690-C from PerkinElmer, Montréal, Canada) were cultured in DMEM F12 culture medium at 37° C. in a humidified chamber under 5% CO2. Culture media were supplemented with 10% FBS, 100 U/mL penicillin, 100 μg/mL streptomycin, 20 mM HEPES, and 0.4 mg/mL G418 at 37° C.
Cells were frozen when they reached 80% confluency. They were scrapped off the dish with 10 mM Tris buffer, 1 mM EDTA, pH 7.5 and centrifuged at 15,000 g for 5 min at 4° C. The pellet was then re-suspended in binding buffer.
Competitive radioligand binding experiments were performed by incubating 15 μg of cell membranes expressing the hNTS1 receptor with 45 pM of ^125I-[Tyr^3]-NT (2200 Ci/mmol purchased from PerkinElmer, Billerica, Mass.) in binding buffer (50 mM Tris-HCl, pH7.5, 0.2% BSA) in the presence of increasing concentrations of the compounds of the invention ranging from 10^−11 to 10^−4 M for 60 min at 25° C. […] Glass filters were then counted using a γ-counter (2470 Wizard2, PerkinElmer, Missisauga, Ontario, Canada).
IC50 (Inhibitory Concentration 50) values were determined from the competition curves as the unlabeled ligand concentration inhibiting half of the ^125I-[Tyr]-NT-specific binding. […]

[6] = target: T3, hNTS1 (β-arrestin 1 recruitment) (Homo sapiens, UniProt P30989); test: BRET biosensor assay, β-arrestin 1 recruitment; assay type: cell-based; conditions: CHO-K1 cells transiently transfected with hNTS1 and biosensors, mean ± SEM, read-out: EC50 β-arr1
T3 construct: expressed in transfected cells; host or cells: CHO-K1, transient transfection with PEI
T3 sequence (P30989 whole entry): as above
T3 sequence (P49407 whole entry partner): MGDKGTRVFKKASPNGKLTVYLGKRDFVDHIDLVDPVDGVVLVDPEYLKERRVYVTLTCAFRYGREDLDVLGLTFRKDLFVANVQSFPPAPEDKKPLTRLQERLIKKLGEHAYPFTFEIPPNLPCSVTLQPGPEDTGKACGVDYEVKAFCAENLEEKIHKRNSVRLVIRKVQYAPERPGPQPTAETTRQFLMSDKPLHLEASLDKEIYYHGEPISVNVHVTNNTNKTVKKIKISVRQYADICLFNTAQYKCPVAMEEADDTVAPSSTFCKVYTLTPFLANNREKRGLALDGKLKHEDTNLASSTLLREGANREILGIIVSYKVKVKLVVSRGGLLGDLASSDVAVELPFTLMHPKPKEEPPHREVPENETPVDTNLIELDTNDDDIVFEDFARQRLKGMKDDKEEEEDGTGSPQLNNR
Protocol: CHO-K1 cells were cultured in DMEM-F12 supplemented with 10% FBS, 100 U/mL penicillin, 100 μg/mL streptomycin, and 20 mM HEPES at 37° C. in a humidified chamber at 5% CO2. Cells were seeded into T75 flasks at a density of 20 000 cells/cm^2; 24 h later, cells were transfected with plasmids coding for hNTS1-Green fluorescent protein 10(GFP10)/Rluc (Renilla Luciferase)II-β-arrestin 1 or hNTS1-GFP10/RlucII-β-arrestin2, or with hNTS1/Gαq-RlucII/Gβ1/IGFP10-Gγ1 or hNTS1/Gα13-RlucII/Gβ1/GFP10-Gγ1 using polyethylenimine (PEI). Cells were transferred into 96-well plates at a concentration of 50 000 cells/well 24 h after transfection and incubated at 37° C. overnight. […] After stimulation, coelenterazine 400A was added in each well to a final concentration of 5 μM and the plate was read using filter selected for BRET2 measurement (BRET2 High efficiency filter set, λemRlucII: 410±80 nm, λemGFP10: 515±40 nm) on a Mithras 2 plate reader (Berthold Technologies, Tennessee, USA). BRET2 ratio was determined as GFP10em/RlucIIem. […] EC50 (Effective Concentration 50) values were determined using the dose response-stimulation log(agonist) vs response (three parameters) and represent the mean±SEM of at least three separate experiments, each performed in triplicate.
NTS1 is capable of activating several signaling pathways, thus the activation of Gαq, Gα13, β-arrestin 1 and β-arrestin 2 pathways was monitored. […]

[7] = BRET, CHO-K1 cells transiently transfected with hNTS1 and biosensors, mean ± SEM, read-out: EC50 β-arr2
[8] = 24 h is the longest time tested

Question: For `CCC(C)[C@H](NC(=O)[C@@H]1Cc2ccc(O)c(c2)CC=CCCCCCCC(=O)N[C@@H](CCCCN)C(=O)N2CCC[C@H]2C(=O)N1)C(=O)NC(CC(C)C)C(=O)O` (stereo partly drawn) [Compound 1, c[nonenoic acid KPY(All)]IL], which EC50 [1, 7] is on record?
Answer: The EC50 was 1370 ± 126 nM.

Question: What about the half-life at […] [2, 8] of the same compound?
Answer: The half-life at […] was 12 h.

Question: With `C=CCNCCCC[C@H](N)C(=O)N[C@@H](CCCCN)C(=O)N1CCC[C@H]1C(=O)N[C@@H](Cc1ccc(O)c(CC=C)c1)C(=O)N[C@H](C(=O)N[C@@H](CC(C)C)C(=O)O)C(C)CC` (stereo partly drawn) [Compound 1-L, nonenoic acid KPY(All)IL] as the compound, how does the Plasma half-life [2, 8] read?
Answer: The Plasma half-life was 4 h.

Question: With `C=CCNCCCC[C@H](N)C(=O)N[C@@H](CCCCN)C(=O)N1CCC[C@H]1C(=O)N[C@@H](Cc1ccc(O)c(CC=C)c1)C(=O)N[C@H](C(=O)N[C@@H](CC(C)C)C(=O)O)C(C)CC` (stereo partly drawn) [Compound 2-L, K(All)KPY(All)IL] as the compound, how does the Plasma half-life [2] read?
Answer: The Plasma half-life was 0.083 h.

Question: Which results are given for `CCC(C)[C@H](NC(=O)[C@@H]1Cc2ccc(O)c(c2)CC=CCCCCCC[C@](C)(N)C(=O)N[C@@H](CCCCN)C(=O)N2CCC[C@H]2C(=O)N1)C(=O)N[C@@H](CC(C)C)C(=O)O` (stereo partly drawn) [Compound 3, c[OctenylAKPY(All)]IL]?
Answer: EC50 [1]: 28 ± 0.1 nM; inhibition at 1 µM [3]: 96%; IC50 [3]: 25.8 nM; Plasma half-life [2, 8]: 24 h; Hypotension (I.V.) [4]: Triphasique; Arterial blood pressure response [4]: triphasic; Blood pressure drop, first phase [4]: about −25 mmHg; Blood pressure in phase 3 [4]: slowly returned towards baseline

Question: What does the source list for `CCC(C)[C@H](NC(=O)[C@@H]1Cc2ccc(O)c(c2)CC=CCNCCCC[C@@H](N)C(=O)N[C@@H](CCCCN)C(=O)N2CCC[C@H]2C(=O)N1)C(=O)N[C@@H](CC(C)C)C(=O)O` (stereo partly drawn) [Compound 4, c[K(All)KPY(All)]IL]?
Answer: inhibition at 1 µM [3]: 93%; Plasma half-life [2, 8]: 24 h

Question: With `CCC(C)[C@H](NC(=O)[C@@H]1Cc2ccc(O)c(c2)CC=CCN(S(=O)(=O)c2ccccc2[N+](=O)[O-])CCCC[C@H](N)C(=O)N[C@@H](CCCCN)C(=O)N2CCC[C@H]2C(=O)N1)C(=O)N[C@@H](CC(C)C)C(=O)O` (stereo partly drawn) [Compound 5, c[K(All)(S(O)2(o-nitrophenyl))KPY(All)]IL] as the compound, how does the inhibition at 1 µM [3] read?
Answer: The inhibition at 1 µM was 96%.

Question: What about the IC50 [3] of the same compound?
Answer: The IC50 was 511 nM.

Question: What about the half-life at […] [2, 8] of the same compound?
Answer: The half-life at […] was 1.4 h.

Question: With `CCC(C)[C@H](NC(=O)[C@@H]1Cc2ccc(O)c(c2)CC=CCNCCCCCC(=O)N[C@@H](CCCCN)C(=O)N2CCC[C@H]2C(=O)N1)C(=O)N[C@@H](CC(C)C)C(=O)O` (stereo partly drawn) [Compound 6, c[aminohex-6-enoic acid(All)KPY(All)]IL] as the compound, how does the EC50 [1, 7] read?
Answer: Its EC50 is 96 ± 0.05 nM.

Question: And the IC50 [5]?
Answer: The IC50 was 500 ± 22 nM.

Question: And the inhibition at 1 µM [3]?
Answer: Its inhibition at 1 µM is 93%.

Question: And the Plasma half-life [2, 8]?
Answer: Its Plasma half-life is 24 h.

Question: What about the EC50 [6] of the same compound?
Answer: Its EC50 is 96 ± 0.07 nM.

Question: For `CCC(C)[C@H](NC(=O)[C@@H]1Cc2ccc(O)c(c2)CC=CCNCC[C@H](N)C(=O)N[C@@H](CCCCN)C(=O)N2CCC[C@H]2C(=O)N1)C(=O)N[C@@H](CC(C)C)C(=O)O` (stereo partly drawn) [Compound 8, c[Dab(All)KPY(All)]IL], which inhibition at 1 µM [3] is on record?
Answer: Its inhibition at 1 µM is 64%.

Question: What about the half-life at […] [2, 8] of the same compound?
Answer: Its half-life at […] is 2.5 h.

Question: What does the source list for `CCC(C)[C@H](NC(=O)[C@@H]1Cc2ccc(O)c(c2)CC=CCCNCCCC[C@H](N)C(=O)N[C@@H](CCCCN)C(=O)N2CCC[C@H]2C(=O)N1)C(=O)N[C@@H](CC(C)C)C(=O)O` (stereo partly drawn) [Compound 9, c[K(butenyl)KPY(All)]IL]?
Answer: inhibition at 1 µM [3]: 104%; half-life at […] [2]: 0.25 h

Question: With `CCC(C)[C@H](NC(=O)[C@@H]1Cc2ccc(O)c(c2)CC=CCCCNCCCC[C@H](N)C(=O)N[C@@H](CCCCN)C(=O)N2CCC[C@H]2C(=O)N1)C(=O)N[C@@H](CC(C)C)C(=O)O` (stereo partly drawn) [Compound 10, c[K(pentenyl)KPY(All)]IL] as the compound, how does the inhibition at 1 µM [3] read?
Answer: The inhibition at 1 µM was 105%.

Question: And the half-life at […] [2]?
Answer: Its half-life at […] is 0.3 h.

Question: For `CCC(C)[C@H](NC(=O)[C@@H]1Cc2ccc(O)c(c2)CC=CCCCCCCC(=O)N[C@@H](CCCNC(=N)N)C(=O)N2CCC[C@H]2C(=O)N1)C(=O)N[C@@H](CC(C)C)C(=O)O` (stereo partly drawn) [Compound 11, c[nonenoic acid-RPY(All)]IL], which inhibition at 1 µM [3] is on record?
Answer: The inhibition at 1 µM was 78%.

Question: With `CCC(C)[C@H](NC(=O)[C@H]1Cc2ccc(O)c(c2)CC=CCCCCCC[C@](C)(N)C(=O)N[C@@H](CCCCN)C(=O)N2CCC[C@H]2C(=O)N1)C(=O)N[C@@H](CC(C)C)C(=O)O` (stereo partly drawn) [Compound 12, c[OctenylAKPY(All)]IL] as the compound, how does the IC50 [5] read?
Answer: Its IC50 is over 10000 nM.

Question: What about the IC50 [3] of the same compound?
Answer: Its IC50 is 1100 nM.

Question: What does the source list for `CCC(C)[C@H](NC(=O)[C@H](Cc1ccc(O)cc1)NC(=O)[C@@H]1CCCN1C(=O)[C@H](CCCNC(=N)N)NC(=O)[C@@H](N)CCCNC(=N)N)C(=O)N[C@@H](CC(C)C)C(=O)O` (stereo partly drawn) [NT 8-13, RRPYIL, reference compound]?
Answer: inhibition at 1 µM [3]: 100%; half-life at […] [2]: 0.05 h

Question: Which “Arterial blood pressure response” value [4] does the source give for `CCOC(=O)[C@H](CC(C)C)NC(=O)[C@@H](NC(=O)[C@H](Cc1c[nH]c2ccccc12)NC(=O)[C@@H]1CCCN1C(=O)[C@H](CCCCN)NC[C@@H](N)CCCCN)C(C)(C)C` [PD149163, H-Lys-[ψCH2NH]-Lys-Pro-Trp-tertLeu-Leu-OEt, reference compound] (H-[X3]PW[Tle]L-OEt) here?
Answer: Its value is “triphasic”.

Question: And the “Blood pressure drop, first phase” value [4]?
Answer: The value was “about −25 mmHg”.

Question: What about the “Blood pressure in phase 3” value [4] of the same compound?
Answer: Its value is “more sustained”.
